Consider 29 molecules from ChEMBL document CHEMBL1130720, “Design, synthesis, and conformational analysis of a novel series of HIV protease inhibitors” (Bioorg Med Chem Lett, 1998).

Each structure is given as a SMILES string. A value given as a limit tells only on which side of the number the result lay.

In one assay the target is T1, Human immunodeficiency virus type 1 protease (Human immunodeficiency virus 1, UniProt Q72874). The experiment in a line: Binding affinity against HIV-1 protease was determined.
As to `COc1ccc(S(=O)(=O)N(CC2CCCC2)C[C@@H](O)CN(CCc2ccccc2)C(=O)Nc2ccccc2)cc1`, the Ki (commonly a dissociation constant, usually derived from enzyme kinetics or from competition with a known ligand) is over 20 µM. Still for that read-out and setting: under `CNC(=O)N(CCc1ccccc1)C[C@H](O)CN(CC1CCCC1)S(=O)(=O)c1ccc(OC)cc1` stands 3.4 µM.

`COc1ccc(S(=O)(=O)N(CC2CCCC2)C[C@@H](O)CN(CCc2ccccc2)C(=O)NC(C)C)cc1` displayed an inhibition constant Ki of over 10 µM. Same read-out and setting: with `COc1ccc(S(=O)(=O)N(CC2CCCC2)C[C@@H](O)CN(CCc2ccccc2)C(=O)NC(C)(C)C)cc1` the figure was 2.1 µM; with `COc1ccc(S(=O)(=O)N(CC2CCCC2)C[C@@H](O)CN(CCc2ccccc2)C(=O)N[C@H]2c3ccccc3C[C@H]2O)cc1`, 0.043 µM. The same measure, in the same setting: under `COc1ccc(S(=O)(=O)N(CC2CCCC2)C[C@@H](O)CN(CCc2ccccc2)C(=O)Nc2cccc(OC)c2)cc1` stands over 10 µM; under `COc1ccc(S(=O)(=O)N(CC2CCCC2)C[C@@H](O)CN(CCc2ccccc2)C(=O)NC2CCc3ccccc32)cc1` (some centres undefined), over 10 µM.

Turning to `COc1ccc(S(=O)(=O)N(CC2CCCC2)C[C@@H](O)CN(CCc2ccccc2)C(=O)NCc2ccccc2)cc1`, the Ki worked out at 0.022 µM.

The target of another assay is T1, Human immunodeficiency virus type 1 protease. Kind of assay: Binding affinity to HIV-1 protease was determined.
As to `COc1ccc(S(=O)(=O)N(CC2CCCC2)C[C@@H](O)CN(CCc2ccccc2)C(=O)Cc2ccccc2)cc1`, the affinity corresponds to a Ki of 0.02 µM. In other words, the double-digit nanomolar range.

As for `COc1ccc(S(=O)(=O)N(CC2CCCC2)C[C@@H](O)CN(CCc2ccccc2)C(=O)OCc2cncs2)cc1`, the Ki was determined as 0.038 µM. Still for that read-out and setting: under `COc1ccc(S(=O)(=O)N(CC2CCCC2)C[C@@H](O)CN(Cc2ccccc2)C(=O)O[C@H]2CCOC2)cc1` stands 0.6 µM. Molecule `COc1ccc(S(=O)(=O)N(CC2CCCC2)C[C@@H](O)CN(CCc2ccccc2)C(=O)OC2CCCSC2)cc1` (some centres undefined) had a Ki of 0.3 µM. On the same count and under the same terms, with `COc1ccc(S(=O)(=O)N(CC2CCCC2)C[C@@H](O)CN(CCc2ccccc2)C(=O)OC2CCCS(=O)(=O)C2)cc1` (some centres undefined) the figure was 1.4 µM; with `COc1ccc(S(=O)(=O)N(CC2CCCC2)C[C@@H](O)CN(CCc2ccccc2)C(=O)Cc2cccc(O)c2C)cc1`, 0.066 µM; with `COc1ccc(S(=O)(=O)N(CC2CCCC2)C[C@@H](O)CN(CCc2ccccc2)C(=O)OC2COCOC2)cc1`, 0.015 µM.

`COc1ccc(S(=O)(=O)N(CC2CCCC2)C[C@@H](O)CN(CCc2ccccc2)C(=O)O[C@H]2CCOC2)cc1` returned an inhibition constant (Ki) of 0.04 µM. Same read-out and setting: under `COc1ccc(S(=O)(=O)N(CC2CCCC2)C[C@@H](O)CN(CCc2ccccc2)C(=O)Oc2ccccc2)cc1` stands 0.173 µM.

In turn, `COc1ccc(S(=O)(=O)N(CC2CCCC2)C[C@@H](O)CN(CCc2ccccc2)C(=O)OC2CCSC2)cc1` (some centres undefined) gave a Ki of 0.104 µM. For `COc1ccc(S(=O)(=O)N(CC2CCCC2)C[C@@H](O)CN(CCc2ccccc2)C(=O)OC2CCS(=O)(=O)C2)cc1` (some centres undefined), the inhibition constant Ki is 0.038 µM. Same read-out and setting: with `COc1ccc(S(=O)(=O)N(CC2CCCC2)C[C@@H](O)CN(CCc2ccccc2)C(=O)Cc2cncc(NS(N)(=O)=O)c2)cc1` the figure was 0.22 µM; with `COc1ccc(S(=O)(=O)N(CC2CCCC2)C[C@@H](O)CN(CCc2ccccc2)C(=O)OC(C)(C)C)cc1`, 0.125 µM. Same read-out and setting: with `COc1ccc(S(=O)(=O)N(CC2CCCC2)C[C@@H](O)CN(CCc2ccccc2)C(=O)O[C@@H]2CO[C@H]3OCC[C@H]32)cc1` the figure was 0.05 µM. `COc1ccc(S(=O)(=O)N(CC2CCCC2)C[C@@H](O)CN(CCc2ccccc2)C(=O)OCc2cccnc2)cc1`: the Ki was 0.017 µM. On to `COc1ccc(S(=O)(=O)N(CC2CCCC2)C[C@@H](O)CN(CCc2ccccc2)C(=O)Cc2cccc(NS(N)(=O)=O)c2)cc1`, for which the Ki amounted to 0.029 µM. This Ki lies about 1.7-fold higher than the previous one. On the same count and under the same terms, under `COc1ccc(S(=O)(=O)N(CC2CCCC2)C[C@@H](O)CN(CCc2ccccc2)C(=O)CC2CCCC(NS(N)(=O)=O)C2)cc1` (some centres undefined) stands 0.076 µM. On the same count and under the same terms, under `COc1ccc(S(=O)(=O)N(CC2CCCC2)C[C@@H](O)CN(CCc2ccccc2)C(=O)OCc2ccncc2)cc1` stands 0.2 µM; under `COc1ccc(S(=O)(=O)N(CC2CCCC2)C[C@@H](O)CN(CCc2ccccc2)C(=O)Cc2cccc(NS(N)(=O)=O)c2C)cc1`, 0.68 µM; under `COc1ccc(S(=O)(=O)N(CC2CCCC2)C[C@@H](O)CN(CCc2ccccc2)C(=O)Cc2ccncc2NS(N)(=O)=O)cc1`, 0.027 µM. Same read-out and setting: with `COc1ccc(S(=O)(=O)N(CC(O)CN(CCc2ccccc2)C(=O)N[C@H](C(=O)OCc2ccccc2)C(C)C)CC2CCCC2)cc1` (single isomer, unassigned) the figure was 0.007 µM.
